Test results reported in ChEMBL document CHEMBL3832761, “MMV Pathogen Box Bioactivity Data” (2017).
Converted amounts (≈) assume the structure as drawn.

Legend:
Type in all cases: functional
[1] = system: Mycobacterium tuberculosis; assay: AntiMycobacterium tuberculosis activity 2-week 7H9/glucose/BSA/Tx MIC (uM); settings: 336 h
[2] = system: Mycobacterium tuberculosis; assay: AntiMycobacterium tuberculosis activity 1-week 7H9/DPPC/cholesterol/BSA/Tx MIC (uM); settings: 168 h
[3] = system: Mycobacterium tuberculosis; assay: (§1) AntiMycobacterium tuberculosis activity day 10 in 7H9/2.5mM butyrate/pH6/0.1mM nitrite MIC90 (uM); settings: 240 h
[4] = system: Mycobacterium tuberculosis; assay: AntiMycobacterium tuberculosis activity 1-week GAST/Fe MIC (uM); settings: 168 h
[5] = system: Mycobacterium tuberculosis; assay: as §1; settings: 240 h; remark: listed apart in the source
[6] = system: Mycobacterium tuberculosis; assay: AntiMycobacterium tuberculosis activity 2-week 7H9/ADC/Tw MIC (uM); settings: 336 h
[7] = system: Mycobacterium tuberculosis; assay: AntiMycobacterium tuberculosis activity Non-Replicating form: Average MIC90 (uM)
[8] = system: Mycobacterium tuberculosis; assay: AntiMycobacterium tuberculosis activity 2-week Alamar Blue 7H9/ADC/Tw MIC (uM); settings: 336 h
[9] = system: Mycobacterium tuberculosis; assay: AntiMycobacterium tuberculosis activity 2-week Alamar Blue 7H9/cholesterol/BSA/Tx MIC (uM); settings: 336 h
[10] = system: Mycobacterium tuberculosis; assay: AntiMycobacterium tuberculosis activity day 21 in 7H9/2.5mM butyrate/pH6/0.1mM nitrite MIC90 (uM); settings: 504 h
HepG2 = assay: HepG2 CC50 (uM) Cytotoxicity; settings: Homo sapiens
[11] = system: Mycobacterium tuberculosis; assay: AntiMycobacterium tuberculosis activity 1-week 7H9/cholesterol/BSA/Tx MIC (uM); settings: 168 h
[12] = system: Mycobacterium tuberculosis; assay: AntiMycobacterium tuberculosis activity 1-week 7H9/ADC/Tw MIC (uM); settings: 168 h
[13] = system: Mycobacterium tuberculosis; assay: AntiMycobacterium tuberculosis activity 1-week 7H9/glucose/BSA/Tx MIC (uM); settings: 168 h
[14] = system: Mycobacterium tuberculosis; assay: AntiMycobacterium tuberculosis activity Replicating form: Average MIC90 (uM)
[15] = system: Mycobacterium tuberculosis; assay: AntiMycobacterium tuberculosis activity 2-week GAST/Fe MIC (uM); settings: 336 h
[16] = system: Mycobacterium tuberculosis; assay: AntiMycobacterium tuberculosis activity day 21 MIC99 in 7H9/2.5mM butyrate/pH6/0.1mM nitrite MIC99 (uM); settings: 504 h
[17] = system: Mycobacterium tuberculosis; assay: AntiMycobacterium tuberculosis activity 2-week 7H9/DPPC/cholesterol/BSA/Tx MIC (uM); settings: 336 h

SMILES	MIC [1]	MIC [2]	MIC90 [3]	MIC [4]	MIC90 [5]	MIC [6]	MIC90 [7]	MIC [8]	MIC [9]	MIC90 [10]	CC50 (HepG2)	MIC [11]	MIC [12]	MIC [13]	MIC90 [14]	MIC [15]	MIC [16]	MIC [17]
Cc1cc(NCCc2ccccc2)nc(NC(=N)Nc2ccc(Cl)cc2)n1	1.2 µM (≈ 0.457 µg/mL)	0.6 µM (≈ 0.229 µg/mL)	3.12 µM (≈ 1.19 µg/mL)	0.78 µM (≈ 0.297 µg/mL)	6.25 µM (≈ 2.38 µg/mL)	1.56 µM (≈ 0.594 µg/mL)	2.77 µM (≈ 1.06 µg/mL)	2.3 µM (≈ 0.876 µg/mL)	0.78 µM (≈ 0.297 µg/mL)	3.12 µM (≈ 1.19 µg/mL)	6.5 µM	0.6 µM (≈ 0.229 µg/mL)	1.2 µM (≈ 0.457 µg/mL)	1.2 µM (≈ 0.457 µg/mL)	1.15 µM (≈ 0.438 µg/mL)	0.78 µM (≈ 0.297 µg/mL)	3.12 µM (≈ 1.19 µg/mL)	0.78 µM (≈ 0.297 µg/mL)
O=C(Nc1cccnc1)c1c(O)c2cccc3c2n(c1=O)CC3	9.4 µM (≈ 2.89 µg/mL)	12.5 µM (≈ 3.84 µg/mL)	6.25 µM (≈ 1.92 µg/mL)	3.13 µM (≈ 0.962 µg/mL)	> 50 µM	25 µM (≈ 7.68 µg/mL)	7.75 µM (≈ 2.38 µg/mL)	25 µM (≈ 7.68 µg/mL)	12.5 µM (≈ 3.84 µg/mL)	12.5 µM (≈ 3.84 µg/mL)	> 100 µM	12.5 µM (≈ 3.84 µg/mL)	25 µM (≈ 7.68 µg/mL)	6.25 µM (≈ 1.92 µg/mL)	8.35 µM (≈ 2.57 µg/mL)	3.13 µM (≈ 0.962 µg/mL)	> 50 µM	12.5 µM (≈ 3.84 µg/mL)
NC(CC(=O)c1ccc(Cl)cc1Cl)C(Cl)(Cl)Cl (configuration not stated)	25 µM (≈ 8.39 µg/mL)	37 µM (≈ 12.4 µg/mL)	12.5 µM (≈ 4.19 µg/mL)	0.39 µM (≈ 0.131 µg/mL)	> 50 µM	12.5 µM (≈ 4.19 µg/mL)	6.04 µM (≈ 2.03 µg/mL)	12.5 µM (≈ 4.19 µg/mL)	25 µM (≈ 8.39 µg/mL)	12.5 µM (≈ 4.19 µg/mL)	37.9 µM	19 µM (≈ 6.37 µg/mL)	12.5 µM (≈ 4.19 µg/mL)	19 µM (≈ 6.37 µg/mL)	17.4 µM (≈ 5.83 µg/mL)	0.6 µM (≈ 0.201 µg/mL)	> 50 µM	50 µM (≈ 16.8 µg/mL)
CCCCS(=O)(=O)Nc1ccc2cnn(C)c2c1	0.78 µM (≈ 0.209 µg/mL)	0.39 µM (≈ 0.104 µg/mL)	12.5 µM (≈ 3.34 µg/mL)	0.3 µM (≈ 0.0802 µg/mL)	> 50 µM	0.6 µM (≈ 0.16 µg/mL)	1.39 µM (≈ 0.372 µg/mL)	0.6 µM (≈ 0.16 µg/mL)	2.3 µM (≈ 0.615 µg/mL)	50 µM (≈ 13.4 µg/mL)	> 100 µM	0.6 µM (≈ 0.16 µg/mL)	0.6 µM (≈ 0.16 µg/mL)	0.39 µM (≈ 0.104 µg/mL)	0.69 µM (≈ 0.184 µg/mL)	0.6 µM (≈ 0.16 µg/mL)	50 µM (≈ 13.4 µg/mL)	0.6 µM (≈ 0.16 µg/mL)
O=C1O[C@@H](CO)CN1c1cc(F)c(C2=CCN(Cc3ccccc3)CC2)c(F)c1	4.7 µM (≈ 1.88 µg/mL)	9.4 µM (≈ 3.76 µg/mL)	50 µM (≈ 20 µg/mL)	9.4 µM (≈ 3.76 µg/mL)	> 50 µM	4.7 µM (≈ 1.88 µg/mL)	19 µM (≈ 7.6 µg/mL)	3.13 µM (≈ 1.25 µg/mL)	4.7 µM (≈ 1.88 µg/mL)	50 µM (≈ 20 µg/mL)	38.8 µM	4.7 µM (≈ 1.88 µg/mL)	4.7 µM (≈ 1.88 µg/mL)	4.7 µM (≈ 1.88 µg/mL)	11.6 µM (≈ 4.65 µg/mL)	9.4 µM (≈ 3.76 µg/mL)	> 50 µM	9.4 µM (≈ 3.76 µg/mL)
CC1COC2(CCN(c3nc(=O)c4cc(C(F)(F)F)cc([N+](=O)[O-])c4s3)CC2)O1 (configuration not stated)	< 0.02 µM	< 0.02 µM	≤ 0.04 µM	< 0.02 µM	≤ 0.04 µM	< 0.02 µM	< 0.01 µM	< 0.02 µM	< 0.02 µM	≤ 0.04 µM	> 100 µM	< 0.02 µM	< 0.02 µM	< 0.02 µM	< 0.01 µM	< 0.02 µM	≤ 0.04 µM	< 0.02 µM
COc1ccc2nc(C)cc(OCC(=O)NCc3ccccc3)c2c1	> 50 µM	12.5 µM (≈ 4.2 µg/mL)	> 50 µM	0.78 µM (≈ 0.262 µg/mL)	> 50 µM	> 50 µM	27.1 µM (≈ 9.12 µg/mL)	6.25 µM (≈ 2.1 µg/mL)	3.13 µM (≈ 1.05 µg/mL)	> 50 µM	> 100 µM	> 50 µM	> 50 µM	> 50 µM	> 100 µM	1.56 µM (≈ 0.525 µg/mL)	> 50 µM	> 50 µM
Cc1cccc(-c2nc(Nc3ccncn3)c3sccc3n2)n1	> 50 µM	37 µM (≈ 11.9 µg/mL)	3.12 µM (≈ 1 µg/mL)	6.25 µM (≈ 2 µg/mL)	6.25 µM (≈ 2 µg/mL)	9.4 µM (≈ 3.01 µg/mL)	0.09 µM (≈ 0.0288 µg/mL)	9.4 µM (≈ 3.01 µg/mL)	6.25 µM (≈ 2 µg/mL)	6.25 µM (≈ 2 µg/mL)	14.3 µM	37 µM (≈ 11.9 µg/mL)	4.7 µM (≈ 1.51 µg/mL)	≥ 50 µM	2.5 µM (≈ 0.801 µg/mL)	12.5 µM (≈ 4 µg/mL)	6.25 µM (≈ 2 µg/mL)	> 50 µM
CC(C)=CCC/C(C)=C\CNCCNC1C2CC3CC(C2)CC1C3 (configuration not stated)	1.2 µM (≈ 0.397 µg/mL)	0.39 µM (≈ 0.129 µg/mL)	> 50 µM	0.39 µM (≈ 0.129 µg/mL)	> 50 µM	1.2 µM (≈ 0.397 µg/mL)	5.3 µM (≈ 1.75 µg/mL)	1.2 µM (≈ 0.397 µg/mL)	0.78 µM (≈ 0.258 µg/mL)	> 50 µM	7.1 µM	0.39 µM (≈ 0.129 µg/mL)	0.78 µM (≈ 0.258 µg/mL)	0.6 µM (≈ 0.198 µg/mL)	1.24 µM (≈ 0.41 µg/mL)	0.78 µM (≈ 0.258 µg/mL)	> 50 µM	0.6 µM (≈ 0.198 µg/mL)
